According to US6218379A, “Tricyclic carbacephems” (Hoffmann-la Roche Inc., priority 1996, dated 2001):
≈ marks a conversion by molar mass, not a printed value. Counter-ions that a name gives are not always drawn.

Experiments:
[1] = test system: Staphylococcus aureus 887; assay: Antibacterial activity in vitro (MIC) against Staphylococcus aureus 887; assay type: cell-based; details: read-out: MIC S. aureus 887
Description: (§1) The minimum inhibitory concentration in vitro (MIC in μg/ml) of a compound of formula I against Citrobacter freundii 1982 and Staphylococcus aureus 887 is measured and compiled in Table 2.

[2] = test system: Citrobacter freundii 1982; assay: Antibacterial activity in vitro (MIC) against Citrobacter freundii 1982; assay type: cell-based; details: read-out: MIC C. freundii 1982
Description: as §1

Row | Compound | MIC [1] | MIC [2]
1 | O=C(O)C1=C(/C=C/c2ccc3ccccc3n2)C[C@@H]2CN[C@@H]3C(=O)N1[C@H]23 [Example 54, (E)-(1aS,3aR,6bR)-1-Oxo-5-(2-quinolin-2-yl-vinyl)-1a,2,3,3a,4,6b-hexahydro-1H-2,6a-diaza-cyclobut[cd]indene-6-carboxylic acid trifluoroacetate (1:1.5)] | 64 µg/mL | 64 µg/mL
2 | CC(=O)N1C[C@H]2CC(/C=C/c3ccccn3)=C(C(=O)O)N3C(=O)[C@@H]1[C@@H]23 [Example 58, (E)-(1aS,3aR,6bR)-2-Acetyl-1-oxo-5-(2-pyridin-2-yl-vinyl)-1a,2,3,3a,4,6b-hexahydro-1H-2,6a-diaza-cyclobut[cd]indene-6-carboxylic acid sodium salt (1:1)] | 2 µg/mL | 4 µg/mL
3 | CC(=O)N1C[C@H]2CC(/C=C/c3ccccc3)=C(C(=O)O)N3C(=O)[C@@H]1[C@@H]23 [Example 57, (E)-(1aS,3aR,6bR)-2-Acetyl-1-oxo-5-styryl-1a,2,3,3a,4,6b-hexahydro-1H-2,6a-diaza-cyclobut[cd]indene-6-carboxylic acid sodium salt (1:1)] | 4 µg/mL | 64 µg/mL
4 | NC(=O)c1ccc(NC(=O)N2C[C@H]3CC(/C=C4\CCN(CC(F)(F)F)C4=O)=C(C(=O)O)N4C(=O)[C@@H]2[C@@H]34)cc1 [Example 23, (E)-(1aS,3aR,6bR)-2-(4-Carbamoyl-phenylcarbamoyl)-1-oxo-5-[2-oxo-1-(2,2,2-trifluoroethyl)-pyrrolidin-3-ylidenemethyl]-1a,2,3,3a,4,6b-hexahydro-1H-2,6a-diaza-cyclobut[cd]indene-6-carboxylic acid sodium salt (1:1)] | 16 µg/mL | 16 µg/mL

Continued by falling MIC [1], values first:

Row | MIC [1] | MIC [2] | Compound
5 | 16 µg/mL | 1 µg/mL | CC(=O)N1C[C@H]2CC(/C=C3\CCN(C4CC4)C3=O)=C(C(=O)O)N3C(=O)[C@@H]1[C@@H]23 [Example 29, (E)-(1aS,3aR,6bR)-2-Acetyl-1-oxo-5-[1-cyclopropyl-2-oxo-pyrrolidin-3-ylidenemethyl]-1a,2,3,3a,4,6b-hexahydro-1H-2,6a-diaza-cyclobut[cd]indene-6-carboxylic acid sodium salt (1:1)]
6 | 4 µg/mL | 8 µg/mL | O=C(O)C1=C(/C=C2\CCN(c3cccc([N+](=O)[O-])c3)C2=O)C[C@@H]2CN(C(=O)C(F)(F)F)[C@@H]3C(=O)N1[C@H]23 [Example 34, (E)-(1aS,3aR,6bR)-1-Oxo-5-[2-oxo-1-(3-nitro-phenyl)-pyrrolidin-3-ylidenemethyl]-2-trifluoroacetyl-1a,2,3,3a,4,6b-hexahydro-1H-2,6a-diaza-cyclobut[cd]indene-6-carboxylic acid sodium salt (1:1)]
7 | 4 µg/mL | 64 µg/mL | O=C(O)C1=C(/C=C/c2cnc3ccccc3c2)C[C@@H]2CN[C@@H]3C(=O)N1[C@H]23 [Example 55, (E)-(1aS,3aR,6bR)-1-Oxo-5-(2-quinolin-3-yl-vinyl)-1a,2,3,3a,4,6b-hexahydro-1H-2,6a-diaza-cyclobut[cd]indene-6-carboxylic acid trifluoroacetate (1:1.4)]
8 | 2 µg/mL | 4 µg/mL | CC(=O)N1C[C@H]2CC(/C=C3\CCN(Cc4cccs4)C3=O)=C(C(=O)O)N3C(=O)[C@@H]1[C@@H]23 [Example 27, (E)-(1aS,3aR,6bR)-2-Acetyl-1-oxo-5-[2-oxo-1-(thiophen-2-ylmethyl)-pyrrolidin-3-ylidenemethyl]-1a,2,3,3a,4,6b-hexahydro-1H-2,6a-diaza-cyclobut[cd]indene-6-carboxylic acid sodium salt (1:1)]
9 | 2 µg/mL | 32 µg/mL | CC(=O)N1C[C@H]2CC(/C=C/c3ccc(O)cc3)=C(C(=O)O)N3C(=O)[C@@H]1[C@@H]23 [Example 60, (E)-(1aS,3aR,6bR)-2-Acetyl-1-oxo-5-[2-(4-hydroxy-phenyl)-vinyl]-1a,2,3,3a,4,6b-hexahydro-1H-2,6a-diaza-cyclobut[cd]indene-6-carboxylic acid sodium salt (1:1)]
10 | 0.5 µg/mL (≈ 0.974 µM) | 64 µg/mL (≈ 125 µM) | CC(=O)N1C[C@H]2CC(/C=C/c3ccc[n+](Cc4ccc(OC(F)(F)F)cc4)c3)=C(C(=O)[O-])N3C(=O)[C@@H]1[C@@H]23 [Example 71]
